In the assay the target is T1, NK3 receptor (Homo sapiens, UniProt P29371).
T1 construct: expressed in transfected cells; host or cells: CHO cell lines (plasma membrane preparation)
T1 sequence (P29371 1-465): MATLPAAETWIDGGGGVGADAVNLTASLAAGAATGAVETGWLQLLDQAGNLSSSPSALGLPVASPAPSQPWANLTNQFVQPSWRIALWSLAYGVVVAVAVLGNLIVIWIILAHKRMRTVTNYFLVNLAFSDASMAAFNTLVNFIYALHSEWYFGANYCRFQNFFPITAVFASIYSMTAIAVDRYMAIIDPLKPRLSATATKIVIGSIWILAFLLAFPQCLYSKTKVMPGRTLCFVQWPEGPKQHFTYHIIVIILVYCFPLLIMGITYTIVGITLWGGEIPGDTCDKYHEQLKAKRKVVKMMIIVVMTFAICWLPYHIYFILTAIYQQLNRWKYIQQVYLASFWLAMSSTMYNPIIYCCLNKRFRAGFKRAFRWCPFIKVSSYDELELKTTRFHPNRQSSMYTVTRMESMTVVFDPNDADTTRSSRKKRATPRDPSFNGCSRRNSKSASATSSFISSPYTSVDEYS
In words: NK3 binding affinity, scintillation proximity assay (SPA). The following applies: 125I [MePhe7]-NKB; plasma membrane from CHO cell lines expressing NK3 receptors. The method, then: The NK3 binding affinity of the compounds of the invention was determined using the following scintillation proximity assay (SPA) (see H. M. Sarau et al, J. Pharmacol. Experimental Therapeutics 1997, 281(3), 1303-1311; H. M. Sarau et al, J. Pharmacol. Experimental Therapeutics 2000, 295(1), 373-381; G. A. M. Giardina et al J. Med. Chem. 1999, 42, 1053-1065). Polystyrene Leadseeker WGA-SPA beads (Amersham Biosciences) were mixed with plasma membrane prepared from CHO cell lines expressing NK3 receptors in a bead/membrane ratio of 20:1 (w/w) in assay buffer (75 mM Tris pH 7.8, 75 mM NaCl, 4 mM MnCl2, 1 mM EDTA, 0.05% Chaps, 1 mM PMSF). The mixture was placed on ice for 20 minutes to allow the formation of membrane/bead complex before BSA was added to a final concentration of 1%. After another 20 minutes incubation on ice, the bead/membrane complex was washed twice and suspended in assay buffer. ^125I [MePhe7]-NKB was then added to the bead/membrane complex. […] After 2-3 hours incubation at room temperature with shaking, the plates were spun for 2 min at 1100 rpm and measured in Viewlux imager (PerkinElmer) for 5 minutes with a 618-nm filter. Inhibition of the radioactive ligand binding to the NK3 receptor was measured by the reduction of signal. pKi was calculated using Kd of the radioactive ligand determined in a separate experiment.
On the technique in general: In a scintillation proximity assay essentially only radioactivity close to the scintillant gives light.

As usually defined, the Ki is the dissociation constant of the complex between target and ligand, obtained from inhibition or displacement. A higher Ki goes with a looser hold on the target.

In the case of `CC[C@H](NC(=O)c1c(COC[C@@H]2CCCN2C)c(-c2ccccc2)nc2ccccc12)c1ccccc1` [Example 1, 3-[({[(2S)-1-Methyl-2-pyrrolidinyl]methyl}oxy)methyl]-2-phenyl-N-[(1S)-1-phenylpropyl]-4-quinolinecarboxamide], the inhibition constant (Ki) was 6.31 nM.
